23 compounds from patent US20060116316A1, “Heterocyclic inhibitors of IRES-mediated translation and methods of use thereof” (priority 2004, published 2006) can be followed below.

In the assay the test system is HCV IRES. Put plainly: HCV IRES reporter FACS assay (GFP expression ratio, intein-expressed cyclic peptides). The format is cell-based, Hepatitis C virus. To be noted: ratio at least 1.20 = significant activity. An excerpt: [The source words this procedure for another variant and says it was used here with some conditions changed.] Cells producing libraries of cyclic 3-mers and 4-mers (i.e., libraries of cyclic peptides that contain 3 or 4 amino acid residues) were constructed using methods identical to those of Kinsella et al (J Biol. Chem. 2002 277:37512-8), except different oligonucleotides were used for library construction. Clones from this library were screened in an assay shown in FIG. 2 to identify IRES-inhibitory compounds.
In summary, separate cyclic 3-mer and cyclic 4-mer libraries were constructed such that each peptide of the library contained a fixed Ser, Thr or Cys residue (at position 1) and the remaining residues were randomized. For library construction, degenerate oligonucleotides of sequence 5′-[…](AGC/ACC/TGC)(NNK)2 or 3 TGCATCAGCGGCGACAG-3′ were annealed to the primer 5′-[…]-3′ and extended using the Expand PCR kit (Roche Molecular Biochemicals). The double-stranded DNA insert was digested and inserted into the BclI/DrdI sites of DnaBO-e-BFP (ACUC). The plasmid libraries were electroporated into ElectroMAX DH 10B competent E. coli (Invitrogen) for amplification on LB+amp agar medium. […] Expression of the intein is detected by detecting BFP expression. Expression of the intein (and the cyclic peptide produced by the intein) is suppressible by addition of exogenous doxycycline. The amino acid sequence of the junctions of the intein scaffold used in making the 3-mer library is Val-His-Asn-X3 or 4-Cys-Ile-Ser, where X3 or 4 are three or four contiguous amino acids.
Infectious retroviral particles were produced by transfection of 15 µg of each library (as described in Swift et al, (1999). Current Protocols in Immunology Vol. 10.17C, pp. 1-17, Freeman, N.Y.) into approximately 5×10^6 Phoenix-A packaging cells. Each resulting library of retroviral particles was then used to infect 5×10^6 BJAB-S3A11 reporter cells and a FACS based selection was carried out to isolate cells with reduced HCV-IRES reporter output.
In detail, referring to FIG. 2, the cells used in the assay contained an IRES-dependent reporter system. […]. Also present in the cells is a control reporter system for assaying the activity of 5′ cap-dependent translation (the mechanism by which most cellular proteins are normally translated). The control reporter system contains a CMV promoter that drives the transcription of an RNA containing 5′ cap-dependent UTR, operably linked to an RNA encoding RFP (red fluorescent protein). Translation of RFP is dependent on the activity of the 5′ cap-dependent UTR.
Cells containing both the cyclic compound library and the reporter systems described above were first screened for survival upon exposure to diptheria toxin, and then screened by FACS to identify cells that had reduced GFP expression, as compared to RFP expression. Cells were expanded and replica-plated and grown in the presence or absence of dox (100 ng/ml) for four days. Plates were stimulated with IL-4 and GFP expression (relative to RFP) was monitored by flow cytometry. The IRES-inhibitory activity of a peptide is evaluated by calculating the ratio of the geometric mean of GFP expression of peptide positive cells (“peptide pos+” cells i.e., cells not contacted with dox) to the geometric mean of GFP expression of peptide negative cells (“peptide pos−” cells i.e., cells contacted with dox).
Cyclic peptides assigned higher scores have a greater IRES-inhibitory activity.
The number shown in parentheses after each of the amino acid sequences is the IRES-inhibitory activity ratio, as discussed above.
(Flow cytometry measures light scatter and fluorescence of single cells or particles in a stream.)

Setting [1] is: BJAB-S3A11 reporter cells, +/- dox 100 ng/ml four days, library intein junction Val-His-Asn-X1X2X3-Cys-Ile-Ser.
The mark [2] stands for this setting: 4-mers from mutant intein scaffold, junction Val-His-Asn-X1X2X3X4-Cys-Ser.
Setting [3] is: 3-mers from mutant intein scaffold, junction Val-His-Tyr-X1X2X3-Cys-Ile-Ser.
The mark [4] stands for this setting: 3-mers from mutant intein scaffold, junction Val-His-Asn-X1X2X3-Trp-Ile-Ser.

Each structure is given as a SMILES string. Where a SMILES comes first, the peptide text is derived from it.

Turning to `CC(C)C[C@@H]1NC(=O)[C@H]([C@@H](C)O)NC(=O)[C@H](Cc2c[nH]c3ccccc23)NC1=O` [cyclo-TLW, cyclo[TLW]] (cyclo(Leu-Trp-Thr)), under setting [1], the “IRES-inhibitory activity ratio (geometric mean GFP expression, peptide positive cells / peptide negative cells)” value was 1.2.

Turning to `CCC(C)[C@@H]1NC(=O)[C@H](C(C)C)NC(=O)[C@H](CO)NC1=O` (some centres unmarked) [cyclo-SVI, cyclo[SVI]], under setting [1], the “IRES-inhibitory activity ratio (geometric mean GFP expression, peptide positive cells / peptide negative cells)” value was 1.28.

Take `C[C@@H]1NC(=O)[C@H](CO)NC(=O)[C@H](Cc2c[nH]c3ccccc23)NC1=O` [cyclo-SAW, cyclo[SAW]] (cyclo(Ala-Trp-Ser)): under setting [1], the “IRES-inhibitory activity ratio (geometric mean GFP expression, peptide positive cells / peptide negative cells)” value worked out at 1.21.

Consider `CSCC[C@@H]1NC(=O)[C@H](Cc2ccccc2)NC(=O)[C@H](Cc2c[nH]c3ccccc23)NC(=O)[C@H](CO)NC1=O` [cyclo-SWFM, cyclo[SWFM]] (cyclo(FMSW)), for which, under setting [2], the “IRES-inhibitory activity ratio (geometric mean GFP expression, peptide positive cells / peptide negative cells)” value is 1.31.

As to `CC(C)[C@@H]1NC(=O)[C@H]([C@@H](C)O)NC(=O)[C@H](CO)NC1=O` [cyclo-STV, cyclo[STV]] (cyclo(Ser-Thr-Val)), the “IRES-inhibitory activity ratio (geometric mean GFP expression, peptide positive cells / peptide negative cells)” value under setting [3] is recorded as 2.24.

For `N=C(N)NCCC[C@@H]1NC(=O)[C@H](Cc2ccccc2)NC(=O)[C@H](Cc2c[nH]c3ccccc23)NC(=O)[C@H](CO)NC1=O` [cyclo-SWFR, cyclo[SWFR]] (cyclo(FRSW)), the “IRES-inhibitory activity ratio (geometric mean GFP expression, peptide positive cells / peptide negative cells)” value under setting [2] amounted to 1.44.

Regarding `O=C(O)C[C@@H]1NC(=O)[C@H](CO)NC(=O)[C@H](Cc2c[nH]c3ccccc23)NC1=O` [cyclo-SDW, cyclo[SDW]] (cyclo(Asp-Trp-Ser)), the “IRES-inhibitory activity ratio (geometric mean GFP expression, peptide positive cells / peptide negative cells)” value under setting [4] is recorded as 1.85.

As for `N=C(N)NCCC[C@@H]1NC(=O)[C@H](Cc2ccc(O)cc2)NC(=O)[C@H](Cc2c[nH]c3ccccc23)NC(=O)[C@H](CO)NC1=O` [cyclo-SWYR, cyclo[SWYR]] (cyclo(RSWY)), under setting [2], the “IRES-inhibitory activity ratio (geometric mean GFP expression, peptide positive cells / peptide negative cells)” value worked out at 1.49.

Take `CC(C)[C@@H]1NC(=O)[C@H](CC(=O)O)NC(=O)[C@H](CO)NC1=O` [cyclo-SDV, cyclo[SDV]] (cyclo(Asp-Val-Ser)): the “IRES-inhibitory activity ratio (geometric mean GFP expression, peptide positive cells / peptide negative cells)” value under setting [3] came out at 1.23.

Consider `C[C@@H](O)[C@@H]1NC(=O)[C@H](CCCNC(=N)N)NC(=O)[C@H](Cc2ccccc2)NC(=O)[C@H](Cc2c[nH]c3ccccc23)NC1=O` [cyclo-TWFR, cyclo[TWFR]] (cyclo(FRTW)), for which the “IRES-inhibitory activity ratio (geometric mean GFP expression, peptide positive cells / peptide negative cells)” value under setting [2] amounted to 1.56.

For the compound `CSCC[C@@H]1NC(=O)[C@H](CO)NC(=O)[C@H](C(C)C)NC1=O` [cyclo-SMV, cyclo[SMV]] (cyclo(Met-Val-Ser)), under setting [1], the “IRES-inhibitory activity ratio (geometric mean GFP expression, peptide positive cells / peptide negative cells)” value was 1.36.

With `CC(C)[C@@H]1NC(=O)[C@H](CCCCN)NC(=O)[C@H](CO)NC1=O` [cyclo-SKV, cyclo[SKV]] (cyclo(Lys-Val-Ser)), under setting [1], the “IRES-inhibitory activity ratio (geometric mean GFP expression, peptide positive cells / peptide negative cells)” value is 1.38.

Consider `C[C@@H]1NC(=O)[C@H](CO)NC(=O)[C@H](CCCCN)NC1=O` [cyclo-SAK, cyclo[SAK]] (cyclo(Ala-Lys-Ser)), for which the “IRES-inhibitory activity ratio (geometric mean GFP expression, peptide positive cells / peptide negative cells)” value under setting [4] turned out to be 1.3.

Consider `N=C(N)NCCC[C@@H]1NC(=O)[C@H](Cc2c[nH]c3ccccc23)NC(=O)[C@H](Cc2c[nH]c3ccccc23)NC(=O)[C@H](CO)NC1=O` [cyclo-SWWR, cyclo[SWWR]] (cyclo(RSWW)), for which the “IRES-inhibitory activity ratio (geometric mean GFP expression, peptide positive cells / peptide negative cells)” value under setting [2] stood at 2.03.

For the compound `O=C1N[C@@H](CO)C(=O)N2CCC[C@H]2C(=O)N[C@H]1Cc1c[nH]c2ccccc12` [cyclo-SPW, cyclo[SPW]] (cyclo(Pro-Trp-Ser)), under setting [4], the “IRES-inhibitory activity ratio (geometric mean GFP expression, peptide positive cells / peptide negative cells)” value amounted to 2.28.

For the compound `CC(C)[C@@H]1NC(=O)[C@H](Cc2ccc(O)cc2)NC(=O)[C@H](CO)NC1=O` [cyclo-SYV, cyclo[SYV]] (cyclo(Ser-Tyr-Val)), under setting [1], the “IRES-inhibitory activity ratio (geometric mean GFP expression, peptide positive cells / peptide negative cells)” value worked out at 1.4.

With `C[C@@H](O)[C@@H]1NC(=O)[C@H](Cc2c[nH]c3ccccc23)NC(=O)[C@H](Cc2cnc[nH]2)NC1=O` [cyclo-THW, cyclo[THW]] (cyclo(His-Trp-Thr)), under setting [1], the “IRES-inhibitory activity ratio (geometric mean GFP expression, peptide positive cells / peptide negative cells)” value was 1.49.

Take `O=C1N[C@@H](Cc2c[nH]c3ccccc23)C(=O)N[C@@H](Cc2c[nH]c3ccccc23)C(=O)N[C@H]1CO` [cyclo-SWW, cyclo[SWW]] (cyclo(Ser-Trp-Trp)): under setting [1], the “IRES-inhibitory activity ratio (geometric mean GFP expression, peptide positive cells / peptide negative cells)” value is 2.37.

Take `CSCC[C@@H]1NC(=O)[C@H]([C@@H](C)O)NC(=O)[C@H](Cc2ccccc2)NC1=O` [cyclo-TMF, cyclo[TMF]] (cyclo(Phe-Thr-Met)): the “IRES-inhibitory activity ratio (geometric mean GFP expression, peptide positive cells / peptide negative cells)” value under setting [1] is given as 1.37.

Turning to `CC(C)[C@@H]1NC(=O)[C@H](C)NC(=O)[C@H]([C@@H](C)O)NC1=O` [cyclo-TAV, cyclo[TAV]] (cyclo(Ala-Val-Thr)), the “IRES-inhibitory activity ratio (geometric mean GFP expression, peptide positive cells / peptide negative cells)” value under setting [3] is given as 2.00.

`O=C1N[C@@H](Cc2c[nH]c3ccccc23)C(=O)N[C@@H](Cc2ccc(O)cc2)C(=O)N[C@H]1CO` [cyclo-SWY, cyclo[SWY]] (cyclo(Ser-Trp-Tyr)): the “IRES-inhibitory activity ratio (geometric mean GFP expression, peptide positive cells / peptide negative cells)” value under setting [1] turned out to be 1.38.

In the case of `CC(C)[C@@H]1NC(=O)[C@H](Cc2ccccc2)NC(=O)[C@H](CO)NC1=O` [cyclo-SFV, cyclo[SFV]], the “IRES-inhibitory activity ratio (geometric mean GFP expression, peptide positive cells / peptide negative cells)” value under setting [1] was found to be 1.33.

`O=C1N[C@@H](Cc2ccc(O)cc2)C(=O)N[C@@H](Cc2c[nH]c3ccccc23)C(=O)N[C@H]1CO` [cyclo-SYW, cyclo[SYW]] (cyclo(Ser-Tyr-Trp)): under setting [1], the “IRES-inhibitory activity ratio (geometric mean GFP expression, peptide positive cells / peptide negative cells)” value came out at 1.64.
